# Assay results: ChEMBL document CHEMBL1201862, “PubChem BioAssay data set” (2004)
# Calls of active or inactive are those of the source.
# What was measured:
# [1] = biological target: T1, Alkaline phosphatase, tissue-nonspecific isozyme (Homo sapiens, UniProt P05186)
# T1 sequence (P05186 whole entry): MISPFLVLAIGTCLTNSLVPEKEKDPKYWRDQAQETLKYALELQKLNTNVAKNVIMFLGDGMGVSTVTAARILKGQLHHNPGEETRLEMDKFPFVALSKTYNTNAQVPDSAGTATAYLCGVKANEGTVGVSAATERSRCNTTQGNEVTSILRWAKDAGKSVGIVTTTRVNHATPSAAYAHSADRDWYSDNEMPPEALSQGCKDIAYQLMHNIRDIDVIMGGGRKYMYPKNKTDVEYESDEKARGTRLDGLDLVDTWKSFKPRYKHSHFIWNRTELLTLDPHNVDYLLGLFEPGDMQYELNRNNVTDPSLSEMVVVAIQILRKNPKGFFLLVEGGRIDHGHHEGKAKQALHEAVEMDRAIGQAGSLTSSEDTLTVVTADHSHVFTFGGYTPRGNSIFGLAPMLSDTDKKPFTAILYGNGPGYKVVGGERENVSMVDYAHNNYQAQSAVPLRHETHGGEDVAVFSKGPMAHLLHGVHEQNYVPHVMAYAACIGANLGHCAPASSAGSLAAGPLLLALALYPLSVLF
# [2] = biological target: T2, Replicative DNA helicase DnaB (Mycobacterium tuberculosis, UniProt P9WMR3); experiment: DnaB intein splicing inhibitors, dose response, biochemical, cell-free fluorescence (AID 449749); type: functional
# T2 sequence (P9WMR3 whole entry): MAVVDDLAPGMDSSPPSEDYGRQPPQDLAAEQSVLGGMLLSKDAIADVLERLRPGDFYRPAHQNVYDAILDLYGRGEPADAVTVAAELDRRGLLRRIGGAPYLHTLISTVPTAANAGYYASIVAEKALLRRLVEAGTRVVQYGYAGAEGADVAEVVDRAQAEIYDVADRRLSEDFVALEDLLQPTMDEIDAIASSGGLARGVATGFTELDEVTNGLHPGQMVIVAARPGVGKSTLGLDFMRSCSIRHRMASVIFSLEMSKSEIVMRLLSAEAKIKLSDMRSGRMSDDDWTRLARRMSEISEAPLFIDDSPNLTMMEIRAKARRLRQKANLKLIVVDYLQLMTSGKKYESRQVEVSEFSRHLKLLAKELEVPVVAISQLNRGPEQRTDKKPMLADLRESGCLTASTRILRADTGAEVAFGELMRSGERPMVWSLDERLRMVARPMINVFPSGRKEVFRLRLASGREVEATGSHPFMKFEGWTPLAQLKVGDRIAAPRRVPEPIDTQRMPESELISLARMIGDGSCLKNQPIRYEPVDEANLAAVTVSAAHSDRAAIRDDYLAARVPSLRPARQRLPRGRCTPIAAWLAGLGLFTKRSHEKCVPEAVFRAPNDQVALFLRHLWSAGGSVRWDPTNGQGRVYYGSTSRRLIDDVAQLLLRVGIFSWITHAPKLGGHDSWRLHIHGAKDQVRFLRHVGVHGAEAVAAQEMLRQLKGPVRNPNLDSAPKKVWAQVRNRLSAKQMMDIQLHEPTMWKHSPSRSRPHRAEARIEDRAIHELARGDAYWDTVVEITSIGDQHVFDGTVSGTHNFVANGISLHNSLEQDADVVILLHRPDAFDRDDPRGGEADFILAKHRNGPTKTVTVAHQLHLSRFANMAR
# [3] = cAMP pathway inhibition in counterscreen cell line – TR-FRET cAMP detection, counter-screen for MC4R biased antagonist project, dose response (AID 602305); type: functional, cell-based;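 also: U2OS cells stimulated with forskolin near its EC80 as the cAMP inducer; potency is for inhibition of forskolin-stimulated cAMP signaling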
# [4] = system: BJ; experiment: BJ-TERT fibroblast viability loss – cell-based, RAS-independent, luminescence, dose response (AID 1933); type: functional; details: Homo sapiens
# [5] = system: BJ; experiment: cells; type: functional, cell-based; details: Homo sapiens
# [6] = DRD fibroblast viability loss – cell-based, non-viral oncogenic, luminescence, dose response (AID 1934); type: functional; details: Homo sapiens
# [7] = biological target: T3, Sphingosine 1-phosphate receptor 4 (Homo sapiens, UniProt O95977); experiment: Fluorescence dose response cell-based high throughput screening assay for antagonists of the Sphingosine 1-Phosphate Receptor 4 (S1P4). [Related pubchem assays: 1524 (Confirmation in triplicates.), 1510 (Primary screen.)]; type: functional
# T3 sequence (O95977 whole entry): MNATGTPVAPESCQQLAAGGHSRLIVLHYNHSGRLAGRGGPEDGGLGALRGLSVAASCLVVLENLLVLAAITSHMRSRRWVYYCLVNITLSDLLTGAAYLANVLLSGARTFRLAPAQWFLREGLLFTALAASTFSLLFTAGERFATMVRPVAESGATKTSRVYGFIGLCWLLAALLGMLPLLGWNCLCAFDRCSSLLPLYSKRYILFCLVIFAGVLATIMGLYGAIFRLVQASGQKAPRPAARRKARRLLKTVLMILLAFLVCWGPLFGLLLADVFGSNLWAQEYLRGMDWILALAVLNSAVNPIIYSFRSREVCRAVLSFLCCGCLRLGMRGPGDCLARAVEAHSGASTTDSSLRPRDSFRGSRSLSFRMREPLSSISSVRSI
# [8] = biological target: Melanocortin receptor 4 (Homo sapiens, UniProt P32245); experiment: inhibitors of MC4R cAMP signaling – cell-based, TR-FRET, biased antagonists, dose response (AID 602298); type: functional;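 also: antagonist potency against agonist-stimulated cAMP production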
# Melanocortin receptor 4, sequence (P32245 whole entry): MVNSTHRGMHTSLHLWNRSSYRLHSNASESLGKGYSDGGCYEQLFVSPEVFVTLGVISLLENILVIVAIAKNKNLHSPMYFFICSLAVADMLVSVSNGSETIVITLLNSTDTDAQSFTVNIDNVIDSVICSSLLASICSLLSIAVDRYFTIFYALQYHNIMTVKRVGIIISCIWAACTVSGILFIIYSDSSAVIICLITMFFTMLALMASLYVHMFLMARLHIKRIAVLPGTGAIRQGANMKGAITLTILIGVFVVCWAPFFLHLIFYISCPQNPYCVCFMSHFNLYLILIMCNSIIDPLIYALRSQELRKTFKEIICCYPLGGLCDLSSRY
# [9] = biological target: T4, Protein RecA (Mycobacterium tuberculosis, UniProt P9WHJ3); experiment: Fluorescence Cell-Free Homogeneous Dose Retest to Identify Inhibitors of RecA-Intein Splicing Activity. [Related pubchem assays (depositor defined):AID2097, AID2223, AID489010, AID492950]; type: functional
# T4 sequence (P9WHJ3 whole entry): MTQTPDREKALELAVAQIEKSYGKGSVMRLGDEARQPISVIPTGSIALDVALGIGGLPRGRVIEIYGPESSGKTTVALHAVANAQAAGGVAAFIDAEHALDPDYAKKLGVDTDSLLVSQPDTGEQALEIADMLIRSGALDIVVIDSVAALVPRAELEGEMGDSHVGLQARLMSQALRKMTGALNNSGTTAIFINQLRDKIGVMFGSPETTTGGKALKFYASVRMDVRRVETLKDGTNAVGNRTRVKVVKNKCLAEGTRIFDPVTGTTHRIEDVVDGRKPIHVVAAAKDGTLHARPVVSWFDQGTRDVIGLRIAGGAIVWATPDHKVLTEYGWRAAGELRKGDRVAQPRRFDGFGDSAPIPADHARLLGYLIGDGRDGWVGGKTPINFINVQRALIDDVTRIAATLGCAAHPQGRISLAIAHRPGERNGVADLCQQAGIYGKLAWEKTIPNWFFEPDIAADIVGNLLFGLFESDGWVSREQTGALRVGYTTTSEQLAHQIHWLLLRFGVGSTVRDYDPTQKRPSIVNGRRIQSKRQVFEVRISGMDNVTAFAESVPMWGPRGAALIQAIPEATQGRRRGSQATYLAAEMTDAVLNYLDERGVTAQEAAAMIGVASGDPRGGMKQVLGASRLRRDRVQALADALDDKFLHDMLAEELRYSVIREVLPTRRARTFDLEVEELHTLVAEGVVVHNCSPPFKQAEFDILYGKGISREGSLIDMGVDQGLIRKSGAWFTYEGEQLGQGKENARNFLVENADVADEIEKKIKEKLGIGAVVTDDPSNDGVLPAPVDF
# [10] = system: BJ; experiment: BJ-TERT-LT-ST fibroblast viability loss – cell-based, RAS-independent, luminescence, dose response (AID 1935); type: functional; details: Homo sapiens;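 also: BJ fibroblasts immortalized with TERT plus LT and ST oncogenes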
# [11] = microbe, parasite or virus in culture; type: functional; details: Mycobacterium tuberculosis
# [12] = biological target: Sphingosine 1-phosphate receptor 1 (Homo sapiens, UniProt P21453); type: functional;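 also: Tango beta-arrestin reporter U2OS cells stimulated with S1P near its EC80; inhibitor potency meaning antagonism of receptor activation by the natural agonist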
# Sphingosine 1-phosphate receptor 1, sequence (P21453 whole entry): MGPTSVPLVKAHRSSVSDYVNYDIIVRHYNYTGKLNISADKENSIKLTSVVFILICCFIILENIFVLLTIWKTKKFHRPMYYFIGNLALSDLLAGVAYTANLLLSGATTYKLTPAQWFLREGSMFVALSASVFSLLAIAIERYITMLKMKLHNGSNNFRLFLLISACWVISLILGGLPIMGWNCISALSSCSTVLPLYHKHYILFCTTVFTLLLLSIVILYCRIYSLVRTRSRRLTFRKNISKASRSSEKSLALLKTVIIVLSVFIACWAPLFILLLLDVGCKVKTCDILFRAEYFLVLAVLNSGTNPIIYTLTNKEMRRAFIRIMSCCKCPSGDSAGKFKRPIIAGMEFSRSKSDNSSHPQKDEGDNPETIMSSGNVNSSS
# [13] = biological target: T5, Neuropeptide Y receptor type 1 (Homo sapiens, UniProt P25929); type: functional;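 as to IC50: HEK293 cells with a CNG channel challenged with NPY then isoproterenol; potency as antagonist that reverses NPY suppression of cAMP signal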
# T5 sequence (P25929 whole entry): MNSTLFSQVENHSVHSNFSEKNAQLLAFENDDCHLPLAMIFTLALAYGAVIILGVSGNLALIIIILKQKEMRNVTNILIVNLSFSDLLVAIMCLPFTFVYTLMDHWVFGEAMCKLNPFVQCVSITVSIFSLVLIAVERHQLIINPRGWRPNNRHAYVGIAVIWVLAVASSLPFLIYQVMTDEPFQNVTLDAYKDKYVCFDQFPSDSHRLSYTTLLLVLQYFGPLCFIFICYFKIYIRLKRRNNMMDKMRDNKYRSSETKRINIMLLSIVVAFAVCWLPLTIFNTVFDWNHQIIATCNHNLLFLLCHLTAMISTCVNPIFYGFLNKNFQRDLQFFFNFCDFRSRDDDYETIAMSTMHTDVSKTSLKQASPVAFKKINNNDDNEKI
# [14] = biological target: T6, Neuropeptide Y receptor type 2 (Homo sapiens, UniProt P49146); type: functional, cell-based;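 as to IC50: HEK293 cells expressing the receptor and a CNG channel; stimulus was NPY near EC95 followed by isoproterenol to raise cAMP; antagonist potency measured as restoring cAMP signal that NPY suppresses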
# T6 sequence (P49146 whole entry): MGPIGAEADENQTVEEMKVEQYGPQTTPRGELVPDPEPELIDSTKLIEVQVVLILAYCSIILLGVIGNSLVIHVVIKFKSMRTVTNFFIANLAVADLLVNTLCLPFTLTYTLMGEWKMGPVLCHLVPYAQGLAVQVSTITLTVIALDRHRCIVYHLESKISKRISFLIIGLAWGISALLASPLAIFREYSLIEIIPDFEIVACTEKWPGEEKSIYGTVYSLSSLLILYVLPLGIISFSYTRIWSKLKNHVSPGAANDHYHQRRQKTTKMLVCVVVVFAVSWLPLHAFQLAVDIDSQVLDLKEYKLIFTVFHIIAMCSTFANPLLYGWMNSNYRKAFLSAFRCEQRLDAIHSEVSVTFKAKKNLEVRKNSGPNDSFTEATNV
# [15] = biological target: Bcl-2-like protein 10 (Homo sapiens, UniProt Q9HD36); experiment: Concentration-response of Bcl-B inhibitors by biochemical FP with TR3 (AID 1243); type: functional
# Bcl-2-like protein 10, sequence (Q9HD36 whole entry): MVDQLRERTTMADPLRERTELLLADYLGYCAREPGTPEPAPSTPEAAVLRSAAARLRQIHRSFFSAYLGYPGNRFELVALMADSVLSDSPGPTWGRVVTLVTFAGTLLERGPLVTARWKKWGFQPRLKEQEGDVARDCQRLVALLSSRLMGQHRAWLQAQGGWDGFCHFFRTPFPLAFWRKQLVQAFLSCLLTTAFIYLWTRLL
# [16] = biological target: T7, Induced myeloid leukemia cell differentiation protein Mcl-1 (Homo sapiens, UniProt Q07820); type: functional
# T7 sequence (Q07820 whole entry): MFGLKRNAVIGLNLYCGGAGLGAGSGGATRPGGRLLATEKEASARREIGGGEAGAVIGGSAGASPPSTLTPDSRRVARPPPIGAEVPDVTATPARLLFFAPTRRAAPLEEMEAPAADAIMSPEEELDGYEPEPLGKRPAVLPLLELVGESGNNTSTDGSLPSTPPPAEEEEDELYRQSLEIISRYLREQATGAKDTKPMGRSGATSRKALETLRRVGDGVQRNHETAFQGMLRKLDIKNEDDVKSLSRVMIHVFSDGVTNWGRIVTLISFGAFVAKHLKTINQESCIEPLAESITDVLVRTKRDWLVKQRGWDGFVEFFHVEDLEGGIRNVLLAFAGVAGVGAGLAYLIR
# [17] = biological target: T7, Induced myeloid leukemia cell differentiation protein Mcl-1; experiment: blockers of MCL1 binding to BIM peptide – biochemical, fluorescence polarization, BIM-BH3 peptide, 1536-well, dose response (AID 2217)
# [18] = A Cell Based Secondary Assay To Explore Cytotoxicity of Compounds that Sensitize Mycobacterium Tuberculosis to Beta-Lactam Antibiotics.; type: functional
# [19] = CCR5-tropic HIV-1 fusion blockers – cell-based, CCR5-tropic Env, dose response (AID 2279); type: functional
# [20] = biological target: Bcl-2-like protein 1 (Homo sapiens, UniProt Q07817); experiment: blockers of BCLXL peptide binding – biochemical, fluorescence polarization, 1536-well, selectivity assay for MCL1 inhibitor project, dose response (AID 2218)
# Bcl-2-like protein 1, sequence (Q07817 whole entry): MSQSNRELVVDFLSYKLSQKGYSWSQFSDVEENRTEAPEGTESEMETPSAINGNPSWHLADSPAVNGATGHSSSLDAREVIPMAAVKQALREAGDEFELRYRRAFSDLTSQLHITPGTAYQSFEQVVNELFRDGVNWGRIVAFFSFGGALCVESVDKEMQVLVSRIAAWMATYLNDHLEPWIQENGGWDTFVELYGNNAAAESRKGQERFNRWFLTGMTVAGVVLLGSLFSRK
# [21] = biological target: T5, Neuropeptide Y receptor type 1; experiment: Fluorescence-based counterscreen for agonists of NPY-Y2: cell-based high-throughput dose response assay for agonists of NPY-Y1.; type: functional
# [22] = biological target: T6, Neuropeptide Y receptor type 2; experiment: Fluorescence-based cell-based high-throughput dose response assay for agonists of NPY-Y2. [Related pubchem assays: 1703 (Screening assay (CNGC inhibitors).), 1359 (Screening assay (NPY-Y2 potentiators or agonists).), 1304 (Screening assay (NPY-Y1 potentiators or agonists).), 1710 (Screening assay (NPY-Y2 agonists).), 1791 (Summary AID.)]; type: functional
# [23] = system: HEK293; experiment: Fluorescence-based counterscreen for potentiators or agonists of NPY-Y2: cell-based high-throughput dose response assay to identify inhibitors of cyclic nucleotide gated ion channel (CNGC) activity. In this assay, the parental HEK293 cell line transfected with a cyclic-nucleotide gated ion channel (CNGC)-based cAMP sensor is used to measure inhibition of isoproterenol-induced CNGC activity by test compound.; type: functional; details: Homo sapiens;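 also: stimulus is 1 µM isoproterenol at EC100 plus PDE inhibitor Ro 20-1724 at 25 µM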
# [24] = mitochondrial function rescue without frataxin homolog – Friedreich's ataxia, plus single-dose screen, dose response (AID 1465); type: functional;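 also: yeast depleted of Yfh1p frataxin homolog grown on glycerol needing respiration; WST-1 tetrazolium dye reduction as measure of cellular dehydrogenase metabolic activity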
# [25] = biological target: Glyceraldehyde-3-phosphate dehydrogenase (Homo sapiens, UniProt P04406)
# Glyceraldehyde-3-phosphate dehydrogenase, sequence (P04406 whole entry): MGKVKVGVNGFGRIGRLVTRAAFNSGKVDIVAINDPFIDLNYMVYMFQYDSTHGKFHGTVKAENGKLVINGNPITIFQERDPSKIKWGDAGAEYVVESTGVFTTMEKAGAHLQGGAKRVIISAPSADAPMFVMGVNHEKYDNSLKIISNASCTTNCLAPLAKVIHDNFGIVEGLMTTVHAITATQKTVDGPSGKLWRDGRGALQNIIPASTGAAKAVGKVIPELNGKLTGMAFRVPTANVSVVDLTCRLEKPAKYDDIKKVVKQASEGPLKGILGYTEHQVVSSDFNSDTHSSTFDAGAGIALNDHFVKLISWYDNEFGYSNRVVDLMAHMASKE
# [26] = biological target: Heat shock cognate 71 kDa protein (Homo sapiens, UniProt P11142); experiment: In Vitro Hsc70 Dose Response Fluorescence Polarization Assay. [Related pubchem assays: 1072 ]
# Heat shock cognate 71 kDa protein, sequence (P11142 whole entry): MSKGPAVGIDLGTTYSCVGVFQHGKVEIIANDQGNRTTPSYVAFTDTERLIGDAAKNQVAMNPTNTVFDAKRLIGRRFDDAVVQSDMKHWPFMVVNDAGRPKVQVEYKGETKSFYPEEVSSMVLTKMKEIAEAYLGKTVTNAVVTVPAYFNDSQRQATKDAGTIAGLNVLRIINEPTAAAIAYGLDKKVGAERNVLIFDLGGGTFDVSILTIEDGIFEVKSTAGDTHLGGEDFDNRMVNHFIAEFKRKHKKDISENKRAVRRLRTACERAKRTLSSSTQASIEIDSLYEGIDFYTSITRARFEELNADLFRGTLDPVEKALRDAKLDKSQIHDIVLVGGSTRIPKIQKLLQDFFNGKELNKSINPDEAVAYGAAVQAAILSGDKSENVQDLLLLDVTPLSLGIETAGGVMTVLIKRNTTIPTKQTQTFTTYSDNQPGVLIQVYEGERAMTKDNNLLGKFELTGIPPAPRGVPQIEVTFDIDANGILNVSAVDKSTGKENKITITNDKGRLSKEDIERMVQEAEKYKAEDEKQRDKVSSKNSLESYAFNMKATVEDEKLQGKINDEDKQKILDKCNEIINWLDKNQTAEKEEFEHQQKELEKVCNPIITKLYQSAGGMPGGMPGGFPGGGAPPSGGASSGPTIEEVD
# [27] = biological target: Heat shock 70 kDa protein 1A (Homo sapiens, UniProt P0DMV8); experiment: inhibition of Hsp70 binding activity – biochemical, fluorescence polarization, SAR follow-up (AID 1072)
# Heat shock 70 kDa protein 1A, sequence (P0DMV8 whole entry): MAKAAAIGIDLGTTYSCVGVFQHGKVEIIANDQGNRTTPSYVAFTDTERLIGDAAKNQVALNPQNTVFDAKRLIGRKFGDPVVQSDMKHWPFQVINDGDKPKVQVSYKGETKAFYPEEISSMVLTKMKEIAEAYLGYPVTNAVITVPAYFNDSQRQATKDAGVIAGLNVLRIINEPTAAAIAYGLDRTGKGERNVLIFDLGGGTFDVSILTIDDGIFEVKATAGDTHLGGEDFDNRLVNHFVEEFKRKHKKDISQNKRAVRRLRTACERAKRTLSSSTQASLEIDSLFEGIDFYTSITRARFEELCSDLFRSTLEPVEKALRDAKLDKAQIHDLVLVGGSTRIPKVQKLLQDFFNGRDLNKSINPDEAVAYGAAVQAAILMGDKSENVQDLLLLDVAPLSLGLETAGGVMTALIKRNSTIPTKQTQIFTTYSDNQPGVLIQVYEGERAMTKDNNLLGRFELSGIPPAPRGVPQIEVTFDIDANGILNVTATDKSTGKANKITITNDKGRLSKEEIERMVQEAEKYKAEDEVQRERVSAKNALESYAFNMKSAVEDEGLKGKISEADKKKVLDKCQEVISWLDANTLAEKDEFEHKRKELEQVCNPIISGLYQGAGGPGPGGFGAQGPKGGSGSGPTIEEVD
smiles,measurement,setting,value
CC(C)CN=C(S)NNC(=O)c1ccco1,EC50,[1],73.9 µM (not active)
CC(=O)n1cc(N(C(=O)CCl)c2ccc(Cl)cc2)c2ccccc21,AC50,[2],1.27 µM (active)
same,IC50,[3],> 64.5 µM (inactive)
same,EC50,[4],0.198 µM (active)
same,EC50,[5],2.5 µM (inconclusive)
same,EC50,[6],1.37 µM (inconclusive)
same,IC50,[7],0.682 µM (active)
same,IC50,[8],> 64.5 µM (inactive)
same,EC50,[9],0.346 µM (active)
same,EC50,[10],2.67 µM (active)
same,CC50,[11],1.08 µM (active)
same,IC50,[12],7.32 µM (active)
Cc1ccc(C)c(NS(=O)(=O)c2cc(C(=O)Nc3ccccc3-c3ccccc3)ccc2Cl)c1,IC50,[13],> 35 µM (not active)
same,IC50,[14],0.428 µM (active)
O=C(O)c1cccc2c1NC(c1cccc(Cl)c1Cl)C1CC=CC21 (centres undefined),EC50,[15],2.67 µM (active)
O=[N+]([O-])c1cc(Cl)cc(/C=N/NC(=S)Nc2cc(S(=O)(=O)N3CCOCC3)ccc2Cl)c1O,IC50,[16],2.19 µM (active)
same,IC50,[17],49.3 µM (not active)
same,CC50,[18],25.7 µM (active)
same,IC50,[19],25.1 µM (active)
same,IC50,[20],> 109 µM (not active)
CCCOc1ccc(/C=N/Nc2ccc(C(=O)O)cc2)c(OCCC)c1,EC50,[21],16.5 µM (not active)
same,EC50,[22],26.3 µM (not active)
same,EC50,[23],11.4 µM (not active)
"O=C1C=Cc2ccccc2C1=O [1,2-NAPHTHOQUINONE]",AC50,[2],5.81 µM (active)
same,EC50,[24],> 100 µM (active)
same,EC50,[9],9.13 µM (active)
Nc1ncnc2c1ncn2[C@@H]1O[C@H](COP(=O)(O)OP(=O)(O)OP(=O)(O)O)[C@@H](O)[C@H]1O [ADENOSINE TRIPHOSPHATE],IC50,[25],> 100 µM (not active)
same,IC50,[26],17.3 µM (active)
same,IC50,[27],3.37 µM (active)
